Assay results taken from patent US20100056516A1 (priority 2006, published 2010).

What was measured:
[1] = target: HIV integrase (Human immunodeficiency virus type 1 group M subtype B, UniProt P04585); test: integrase strand transfer assay (STA); format: biochemical; conditions: integrase strand transfer; read-out: IC50 in the STA assay
[2] = test system: HXB2 virus; test: microbe, parasite or virus in culture; format: cell-based, HIV; conditions: Human immunodeficiency virus 1, HXB2, HeLaP4-2, read-out: antiviral IC50 (SCIA-B)
Description: An assay for measuring the inhibition of acute HIV infection with HeLa P4-2 cells in a single cycle infectivity assay (SCIA-A) was conducted in accordance with Joyce, J. G., et al., J. Biol. Chem., 2002, 277, 45811, Hazuda, D. J. et al., Science, 2000, 287, 646, and Kimpton, J. et al, J. Virol. 1992, 66, 2232. Infectious virus was produced by transfecting 293T cells with HIV proviral DNA in which the integrase gene was derived from a IIIB isolate and the remainder of the HIV genome was derived from the NL4-3 isolate.
This assay B for measuring the inhibition of acute HIV infection with HeLa P4-2 cells in a single cycle infectivity assay (SCIA-B) is essentially the same as Assay A described above, except that HXB2 virus is employed instead of the IIIb isolate.

## O=C(NCc1ccccc1)c1c(O)c2cccnc2n(O)c1=O [Example 19, N-benzyl-1,4-dihydroxy-2-oxo-1,2-dihydro-1,8-naphthyridine-3-carboxamide]
[1]
  IC50: < 50 µM
[2]
  IC50: < 100 µM

## O=C(Nc1ccccc1)c1c(O)c2cccnc2n(O)c1=O [Example 20, 1,4-Dihydroxy-2-oxo-N-phenyl-1,2-dihydro-1,8-naphthyridine-3-carboxamide]
[1]
  IC50: < 50 µM
[2]
  IC50: < 100 µM

## O=C(NCC(F)(F)F)c1c(O)c2cccnc2n(O)c1=O [Example 22, 1,4-Dihydroxy-2-oxo-N-(2,2,2-trifluoroethyl)-1,2-dihydro-1,8-naphthyridine-3-carboxamide]
[1]
  IC50: < 50 µM
[2]
  IC50: < 100 µM

## CC(NC(=O)c1c(O)c2cccnc2n(O)c1=O)c1ccccc1 (centres unmarked) [Example 23, 1,4-Dihydroxy-2-oxo-N-(1-phenylethyl)-1,2-dihydro-1,8-naphthyridine-3-carboxamide]
[1]
  IC50: < 50 µM
[2]
  IC50: < 100 µM

## O=C(NCC1CCNC1)c1c(O)c2cccnc2n(O)c1=O (centres unmarked) [Example 25, 1,4-Dihydroxy-2-oxo-N-(pyrrolidin-3-ylmethyl)-1,2-dihydro-1,8-naphthyridine-3-carboxamide]
[1]
  IC50: < 50 µM
[2]
  IC50: < 100 µM

## O=c1c(-c2c(F)cccc2F)c(O)c2cccnc2n1O [Example 29, 3-(2,6-Difluorophenyl)-1,4-dihydroxy-1,8-naphthyridin-2(1H)-one]
[1]
  IC50: < 50 µM
[2]
  IC50: < 100 µM

## O=c1c(-c2ccccc2)c(O)c2cccnc2n1O [Example 30, 1,4-Dihydroxy-3-phenyl-1,8-naphthyridin-2-(1H)-one]
[1]
  IC50: < 50 µM
[2]
  IC50: < 100 µM

## COc1ccc(-c2c(O)c3cccnc3n(O)c2=O)cc1 [Example 31, 1,4-Dihydroxy-3-(4-methoxyphenyl)-1,8-naphthyridin-2(1H)-one]
[1]
  IC50: < 50 µM
[2]
  IC50: < 100 µM

## O=c1c(-c2ccccc2F)c(O)c2cccnc2n1O [Example 32, 3-(2-Fluorophenyl)-1,4-dihydroxy-1,8-naphthyridin-2(1H)-one]
[1]
  IC50: < 50 µM
[2]
  IC50: < 100 µM

## O=c1c(-c2ccc(F)cc2)c(O)c2cccnc2n1O [Example 34, 3-(4-Fluorophenyl)-1,4-dihydroxy-1,8-naphthyridin-2(1H)-one]
[1]
  IC50: < 50 µM
[2]
  IC50: < 100 µM

## O=c1c(-c2ccccc2Cl)c(O)c2cccnc2n1O [Example 35, 3-(2-Chlorophenyl)-1,4-dihydroxy-1,8-naphthyridin-2(1H)-one]
[1]
  IC50: < 50 µM
[2]
  IC50: < 100 µM

## O=c1c(-c2cccc(F)c2)c(O)c2cccnc2n1O [Example 36, 3-(3-Fluorophenyl)-1,4-dihydroxy-1,8-naphthyridin-2(1H)-one]
[1]
  IC50: < 50 µM
[2]
  IC50: < 100 µM

## O=c1c(-c2ccc(Cl)cc2)c(O)c2cccnc2n1O [Example 37, 3-(4-Chlorophenyl)-1,4-dihydroxy-1,8-naphthyridin-2(1H)-one]
[1]
  IC50: < 50 µM
[2]
  IC50: < 100 µM

## O=c1c(-c2ccc(Br)cc2)c(O)c2cccnc2n1O [Example 38, 3-(4-Bromophenyl)-1,4-dihydroxy-1,8-naphthyridin-2(1H)-one]
[1]
  IC50: < 50 µM
[2]
  IC50: < 100 µM

## COc1ccccc1-c1c(O)c2cccnc2n(O)c1=O [Example 39, 1,4-Dihydroxy-3-(2-methoxyphenyl)-1,8-naphthyridin-2(1H)-one]
[1]
  IC50: < 50 µM
[2]
  IC50: < 100 µM

## O=c1c(C2CCCC2)c(O)c2cccnc2n1O [Example 41, 3-Cyclopentyl-1,4-dihydroxy-1,8-naphthyridin-2(1H)-one]
[1]
  IC50: < 50 µM
[2]
  IC50: < 100 µM

## CCCCc1c(O)c2cccnc2n(O)c1=O [Example 42, 3-Butyl-1,4-dihydroxy-1,8-naphthyridin-2(1H)-one]
[1]
  IC50: < 50 µM
[2]
  IC50: < 100 µM

## O=c1c(-c2cccc(Br)c2)c(O)c2cccnc2n1O [Example 44, 3-(3-bromophenyl)-1,4-dihydroxy-1,8-naphthyridin-2(1H)-one]
[1]
  IC50: < 50 µM
[2]
  IC50: < 100 µM

## N#Cc1ccc(-c2c(O)c3cccnc3n(O)c2=O)cc1 [Example 45, 4-(1,4-dihydroxy-2-oxo-1,2-dihydro-1,8-naphthyridin-3-yl)benzonitrile]
[1]
  IC50: < 50 µM
[2]
  IC50: < 100 µM

## O=c1c(-c2ccccc2O)c(O)c2cccnc2n1O [Example 46, 1,4-dihydroxy-3-(2-hydroxyphenyl)-1,8-naphthyridin-2(1H)-one]
[1]
  IC50: < 50 µM
[2]
  IC50: < 100 µM

## O=c1c(-c2ccccc2)c(O)c2cc(Br)cnc2n1O [Example 47, 6-Bromo-1,4-dihydroxy-3-phenyl-1,8-naphthyridin-2(1H)-one]
[1]
  IC50: < 50 µM
[2]
  IC50: < 100 µM

## CCOC(=O)c1c(O)c2cc(-c3ccccc3)cnc2n(O)c1=O [Example 49, Ethyl 1,4-dihydroxy-2-oxo-6-phenyl-1,2-dihydro-1,8-naphthyridine-3-carboxylate]
[1]
  IC50: < 50 µM
[2]
  IC50: < 100 µM

## NCc1cccc(-c2cnc3c(c2)c(O)c(-c2ccccc2)c(=O)n3O)c1 [Example 50, 6-[3-(Aminomethyl)phenyl]-1,4-dihydroxy-3-phenyl-1,8-naphthyridin-2(1H)-one]
[1]
  IC50: < 50 µM
[2]
  IC50: < 100 µM

## O=c1c(-c2ccccc2)c(O)c2cc(-c3ccccc3)cnc2n1O [Example 51, 1,4-Dihydroxy-3,6-diphenyl-1,8-maphthyridin-2(1H)-one]
[1]
  IC50: < 50 µM
[2]
  IC50: < 100 µM

## O=c1c(-c2ccccc2)c(O)c2cc(Cc3ccccc3)cnc2n1O [Example 52, 6-Benzyl-1,4-dihydroxy-3-phenyl-1,8-naphthyridin-2(1H)-one]
[1]
  IC50: < 50 µM
[2]
  IC50: < 100 µM

## O=c1c(-c2ccccc2)c(O)c2cc(-c3ccccc3-n3cccn3)cnc2n1O [Example 53, 1,4-Dihydroxy-3-phenyl-6-[2-(1H-pyrazol-1-yl)phenyl]-1,8-naphthyridin-2(1H)-one]
[1]
  IC50: < 50 µM
[2]
  IC50: < 100 µM

## O=c1c(-c2ccccc2)c(O)c2cc(-c3cccc(-c4ccccc4)c3)cnc2n1O [Example 54, 6-Biphenyl-3-yl-1,4-dihydroxy-3-phenyl-1,8-naphthyridin-2(1H)-one]
[1]
  IC50: < 50 µM
[2]
  IC50: < 100 µM

## O=c1c(-c2ccccc2)c(O)c2cc(/C=C/c3ccccc3)cnc2n1O [Example 55, 1,4-Dihydroxy-3-phenyl-6-[(E)-2-phenylvinyl]-1,8-naphthyridin-2(1H)-one]
[1]
  IC50: < 50 µM
[2]
  IC50: < 100 µM

## O=c1c(-c2ccccc2)c(O)c2cc(-c3ccc4ccccc4c3)cnc2n1O [Example 56, 1,4-Dihydroxy-6-(2-naphthyl)-3-phenyl-1,8-naphthyridin-2(1H)-one]
[1]
  IC50: < 50 µM
[2]
  IC50: < 100 µM

## CCOC(=O)c1c(O)c2cc(-c3cccnc3)cnc2n(O)c1=O [Example 58, Ethyl 1,4-dihydroxy-2-oxo-6-pyridin-3-yl-1,2-dihydro-1,8-naphthyridine-3-carboxylate]
[1]
  IC50: < 50 µM
[2]
  IC50: < 100 µM

## CCOC(=O)c1c(O)c2cc(-c3cccc(C#N)c3)cnc2n(O)c1=O [Example 60, Ethyl 6-(3-cyanophenyl)-1,4-dihydroxy-2-oxo-1,2-dihydro-1,8-naphthyridine-3-carboxylate]
[1]
  IC50: < 50 µM
[2]
  IC50: > 100 µM

## CCOC(=O)c1c(O)c2cc(-c3ccccc3OC)cnc2n(O)c1=O [Example 61, Ethyl 1,4-dihydroxy-6-(2-methoxyphenyl)-2-oxo-1,2-dihydro-1,8-naphthyridine-3-carboxylate]
[1]
  IC50: < 50 µM
[2]
  IC50: < 100 µM

## CCOC(=O)c1c(O)c2cc(-c3cccc(OC)c3)cnc2n(O)c1=O [Example 62, Ethyl 1,4-dihydroxy-6-(3-methoxyphenyl)-2-oxo-1,2-dihydro-1,8-naphthyridine-3-carboxylate]
[1]
  IC50: < 50 µM
[2]
  IC50: < 100 µM

## CCOC(=O)c1c(O)c2cc(Cc3ccccc3)cnc2n(O)c1=O [Example 63, Ethyl 6-benzyl-1,4-dihydroxy-2-oxo-1,2-dihydro-1,8-naphthyridine-3-carboxylate]
[1]
  IC50: < 50 µM
[2]
  IC50: < 100 µM

## CCOC(=O)c1c(O)c2cc(-c3cccc(-c4ccccc4)c3)cnc2n(O)c1=O [Example 64, Ethyl 6-biphenyl-3-yl-1,4-dihydroxy-2-oxo-1,2-dihydro-1,8-naphthyridine-3-carboxylate]
[1]
  IC50: < 50 µM
[2]
  IC50: < 100 µM

## CCOC(=O)c1c(O)c2cc(-c3cc(C)cc(C)c3)cnc2n(O)c1=O [Example 65, Ethyl 6-(3,5-dimethylphenyl)-1,4-dihydroxy-2-oxo-1,2-dihydro-1,8-napthyridine-3-carboxylate]
[1]
  IC50: < 50 µM
[2]
  IC50: < 100 µM

## O=c1c(Cc2ccccc2)c(O)c2cc(-c3ccccc3)cnc2n1O [Example 67, 3-Benzyl-1,4-dihydroxy-6-phenyl-1,8-naphthyridin-2(1H)-one]
[1]
  IC50: < 50 µM
[2]
  IC50: < 100 µM

## Nc1cccc(-c2cnc3c(c2)c(O)cc(=O)n3O)c1 [Example 68, 6-(3-Aminophenyl)-1,4-dihydroxy-1,8-naphthyridin-2(1H)-one]
[1]
  IC50: < 50 µM
[2]
  IC50: < 100 µM

## CS(=O)(=O)Nc1cccc(-c2cnc3c(c2)c(O)cc(=O)n3O)c1 [Example 69, N-[3-(5,8-Dihydroxy-7-oxo-7,8-dihydro-1,8-naphthyridin-3-yl)phenyl]methane-sulfonamide]
[1]
  IC50: < 50 µM
[2]
  IC50: < 100 µM

## CCOC(=O)c1c(O)c2cc(C(C)=O)cnc2n(O)c1=O [Example 70, ethyl 6-acetyl-1,4-dihydroxy-2-oxo-1,2-dihydro-1,8-naphthyridine-3-carboxylate]
[1]
  IC50: < 50 µM
[2]
  IC50: < 100 µM
